In patent publication US9422246B2, “Benzylidene azolidine derivative or salt thereof” (ROHTO Pharmaceutical Co., Ltd., priority 2012, dated 2016):

What was measured:
[1] = UV absorbing properties (UV spectrum in ethanol); format: physicochemical; details: 5 ppm in ethanol, quartz cell 1 cm optical path length
Experimental: The resulting compound 1 was dissolved at a concentration of 5 ppm in ethanol as a solvent to form a sample solution. After the prepared sample solution was injected into a quartz cell (1 cm in optical path length), the UV spectrum of the sample was measured with a spectrophotometer (UV-2450 manufactured by SHIMADZU CORPORATION), in which the maximal absorption wavelength (λmax) and the absorbance at the maximal absorption wavelength were determined. When the maximal absorption wavelength falls within the ultraviolet wavelength range, the higher absorbance at the maximal absorption wavelength indicates the better UV absorbing properties.

[2] = Evaluation of hydrophilicity (solubility in test solvent); format: physicochemical; details: 25° C.; test solvent 10% by weight dipropylene glycol, 10% ethanol, 80% purified water
Experimental: Test solvent: A mixed solvent containing 10% by weight of dipropylene glycol, 10% by weight of ethanol, and 80% by weight of purified water (based on 100% by weight of the total amount of dipropylene glycol, ethanol, and purified water).
Based on the difference in solubility, the hydrophilicity was evaluated as follows.
Particularly high hydrophilicity: A solubility of 1.0 or more (g/100 g test solvent)
High hydrophilicity: A solubility of 0.2 to less than 1.0 (g/100 g test solvent)
Low hydrophilicity: A solubility of 0.1 to less than 0.2 (g/100 g test solvent)
No hydrophilicity: A solubility of less than 0.1 (g/100 g test solvent) or the occurrence of suspended solids

SMILES	Absorbance at maximal absorption wavelength [1]	Maximal absorption wavelength (λmax) [1]	Solubility [2]
O=C1C(=Cc2ccc(OCCOCCOCCO)cc2)N(CCOCCOCCO)C(=O)N1CCOCCOCCO [Compound 2, 5-[4-[2-[2-(2-hydroxyethoxyl)ethoxy]ethoxy]benzylidene]-1,3-bis[2-[2-(2-hydroxyethoxyl)ethoxy]ethyl]hydantoin]	0.12	325 nm	25< g/100 g test solvent
O=C1NC(=Cc2ccc(OCCOCCO)cc2)C(=O)N1CCOCCO [Compound 1, 5-[4-[2-(2-hydroxyethoxyl)ethoxy]benzylidene]-3-[2-(2-hydroxyethoxyl)ethyl]hydantoin]	0.43	335 nm	2.0 g/100 g test solvent
CCCCC(CC)COC(=O)CCN1C(=O)NC(=Cc2ccc(OC)c(OC)c2)C1=O (stereo not shown) [1′, 2-ethylhexyl dimethoxybenzylidene dioxoimidazolidine propionate, reference compound]	–	–	<0.05 g/100 g test solvent
COc1ccc(C=C2C(=O)N(CC(=O)OCCOCCO)C(=O)N2CC(=O)OCCOCCO)cc1 [Compound 7, 5-(4-methoxybenzylidene)-1,3-bis[2-[2-(2-hydroxyethoxy)ethoxy]-2-oxoethyl]hydantoin]	0.14	326 nm	25< g/100 g test solvent
O=C(COc1ccc(C=C2NC(=O)N(CC(=O)N(CCO)CCO)C2=O)cc1)N(CCO)CCO [Compound 3, 5-[4-[2-[bis(2-hydroxyethyl)amino]-2-oxoethoxy]benzylidene]-3-[2-[bis(2-hydroxyethyl)amino]-2-oxoethyl]hydantoin]	0.30	336 nm	1.2 g/100 g test solvent
O=C(CCN1C(=O)NC(=Cc2ccc(OCCOCCO)cc2)C1=O)N(CCO)CCO [Compound 4, 5-[4-[2-(2-hydroxyethoxyl)ethoxy]benzylidene]-3-[3-[bis(2-hydroxyethyl)amino]-3-oxopropyl]hydantoin]	0.34	338 nm	1.5 g/100 g test solvent
O=C(COc1ccc(C=C2NC(=O)N(CC(=O)OCCOCCO)C2=O)cc1)OCCOCCO [Compound 5, 5-[4-[2-[2-(2-hydroxyethoxyl)ethoxy]-2-oxoethoxy]benzylidene]-3-[2-[2-(2-hydroxyethoxyl)ethoxy]-2-oxoethyl]hydantoin]	0.20	335 nm	0.2 g/100 g test solvent
COc1ccc(C=C2C(=O)N(CC(=O)N(CCO)CCO)C(=O)N2CC(=O)N(CCO)CCO)cc1 [Compound 6, 5-(4-methoxybenzylidene]-1,3-bis[2-[bis(2-hydroxyethyl)amino]-2-oxoethyl]hydantoin]	0.18	328 nm	25< g/100 g test solvent
